Measured values as given in patent US8309550B2, “Kinase inhibitors and their use as pharmaceutical agents” (Shanghai Genomics, Inc., priority 2011, dated 2012).
Read-outs that look alike come from different tables or passages of the source.

How the values were obtained:
[1] = Pharmacokinetic determination, rat IV/PO study; format: in vivo; details: for MRT inf: read-out: MRT(0-∞)
Method: Male Sprague-Dawley rats were maintained on food and water ad libitum. They were housed in an individual ventilated caging system. The test compound at a dose of 5 mg/kg and 20 mg/kg was given i.v. and orally to SD rats respectively (3 animals per group). The appropriate quantity compound with free base (Wt.: 346.1) was accurately weighted into a tube and dissolved in NMP, vortexed to get a clear solution. 0.015N HCl in Saline was added and the solution was vortexed to yield a clear and colorless solution at 1 mg/mL for both intravenous and oral administration. The concentration of the test compound in the dosing solution was reconfirmed by HPLC method. […] Plasma samples were collected from retro-orbital puncture at pre-dose and 0.083, 0.25, 0.5, 1, 2, 4, 6, 8, and 24 hours post-dose. All samples and the dose formulation were stored at −20° C. until bioanalysis. The concentrations of the test compound in plasma were determined using a high performance liquid chromatography/mass spectrometry (HPLC/MS/MS) method.

[2] = test system: Xenograft tumor models (HT-29, H460, Molt-4, PC-3M, HL60); experiment: Xenograft studies with human tumor cell lines; format: in vivo, BALB/c nude mice; details: i.p, qd, 21 days, dosage from 12.5 mg/kg to 100 mg/kg; significant with p<0.05 (T-test)
Method: Female BALB/c nude mice from SHANGHAI SLAC LABORATORY ANIMAL CO with age of 5 to 6 weeks and body weight of 19 to 20 g were used in the study. Autoclaved water and irradiated food were provided ad libitum, and animals were maintained on a 12-hour light and 12-hour dark cycle. Cages, bedding, and water bottles were autoclaved before use and changed weekly. The health of all animals was determined by daily gross observation of experimental animals, and analyses of blood samples of sentinel animals housed on shared shelf racks. All animals were allowed to acclimate and recover from any shipping-related stress for a minimum of 72 hours before experimental use. All animal experiments were conducted according to the guidelines of Chinese.
Xenograft tumor models were established with human tumor cell lines. […] Tumor growth was monitored twice per week until the tumor reached to a volume of 100 mm^3. […]
Mortality checks were conducted daily. Body weight of the mice was determined twice a week. […] Weight loss was calculated as percentage change in mean group body weight using the following formula: [(W−W0)/W0]×100, where ‘W’ represents mean body weight of the treated group at a particular day and ‘W0’ represents mean body weight of the same treated group at initiation of treatment. Tumor volumes (in mm3) were calculated after 21 days drug administration. […]

[3] = male, Sprague-Dawley, plasma, IV (5 mg/kg)
[4] = male, Sprague-Dawley, plasma, PO (20 mg/kg)

With CCn1cc(-c2ccnc(Nc3cccc(S(N)(=O)=O)c3)n2)c2cccnc21 [Compound 18, 3-(4-(1-Ethyl-1H-pyrrolo[2,3-b]pyridin-3-yl)pyrimidin-2-ylamino)benzenesulfonamide] the “F*” value ([1]; PO (20 mg/kg) vs IV (5 mg/kg)) was 67.51%, the AUC(0-inf) [1, 3] was 0.545 µg·h/mL and the AUC(0-t) [1, 3] was 0.543 µg·h/mL. For the same molecule, the Cmax [1, 3] was 0.963 µg/mL, the Tmax [1, 3] was 4.98 min and the clearance [1, 3] was 9.38 L/h/kg. The half-life [1, 3] was 42 min, the MRT inf [1, 3] was 40.2 min and the Vd ([1]; male, Sprague-Dawley, plasma, IV (5 mg/kg), read-out: Vz) was 9.6 L/kg. For the same molecule, the AUC(0-inf) [1, 4] was 1.49 µg·h/mL, the AUC(0-t) [1, 4] was 1.47 µg·h/mL and the Cmax [1, 4] was 0.895 µg/mL. The Tmax [1, 4] was 34.8 min, the half-life [1, 4] was 74.4 min and the MRT inf [1, 4] was 100 min. The “oral availability and t 1/2 after oral administration (in words)” value ([1]; oral administration) was “This result showed that compound 18 has good oral availability and t 1/2 after oral administration”.

For CCCn1cc(-c2ccnc(Nc3ccc(C)c(S(=O)(=O)N4CCOCC4)c3)n2)c2ccncc21 [Compound 102, N-(4-Methyl-3-(morpholinosulfonyl)phenyl)-4-(1-propyl-1H-pyrrolo[2,3-c]pyridin-3-yl)pyrimidin-2-amine], the “anti-tumor activities in xenograft mice” value [2] was “showed anti-tumor activities”.
